pIC50: −log10 of the molar value. The source made the active and inactive calls. No cut-off for these calls is given here.

Type in all cases: functional, cell-based
Assay [1] has as its system RAW264.7. As to the kind of experiment: Inhibition of LPS-induced nitric oxide production in mouse RAW264.7 cells after 20 hrs by Griess assay. Conditions: RAW264.7, 20 h. For orientation: Griess reagent forms a coloured azo dye with nitrite.
The test system of assay [2] is PANC-1. Nature of the assay: Cytotoxicity against human PANC1 cells up to 100 uM.
The test system of assay [3] is A498. As to the kind of experiment: Cytotoxicity against human A498 cells up to 100 uM.
For assay [4], the system named is MiaPaCa. As to the kind of experiment: Cytotoxicity against human MiaPaCa cells up to 100 uM.

Usually pIC50 stands for −log10 of the IC50, conventionally taken in molar units. A higher pIC50 goes with a small IC50. `Cc1ccc2c(c1)/C(=C/C(C)C)C=C2CO` gave a pIC50 in assay [1] of 4.64. Also, the outcome in assay [2], in assay [3] and in assay [4] was inactive.

Turning to `Cc1ccc2c(c1)/C(=C/C(C)C)C[C@]2(O)CO`, the pIC50 in assay [1] was 4.72. Besides, the result in assay [2], in assay [3] and in assay [4] was inactive.

The values are drawn from ChEMBL document CHEMBL3297738, “Anmindenols A and B, inducible nitric oxide synthase inhibitors from a marine-derived Streptomyces sp” (J Nat Prod, 2014).
